Our source for the IC50 values is PMC5805707 (Scientific Reports, 2018).

The target of this test is T1, cytochrome bd (Mycobacterium tuberculosis, UniProt L7N662).
T1 construct: gene cydA; native complex in inverted membrane vesicles of strain mc^2 6020
Kind of test: NADH-driven oxygen consumption of inverted membrane vesicles (Clark electrode); maximal inhibition […]. The format is biochemical.

T1 sequence (O06139 entry or part of it): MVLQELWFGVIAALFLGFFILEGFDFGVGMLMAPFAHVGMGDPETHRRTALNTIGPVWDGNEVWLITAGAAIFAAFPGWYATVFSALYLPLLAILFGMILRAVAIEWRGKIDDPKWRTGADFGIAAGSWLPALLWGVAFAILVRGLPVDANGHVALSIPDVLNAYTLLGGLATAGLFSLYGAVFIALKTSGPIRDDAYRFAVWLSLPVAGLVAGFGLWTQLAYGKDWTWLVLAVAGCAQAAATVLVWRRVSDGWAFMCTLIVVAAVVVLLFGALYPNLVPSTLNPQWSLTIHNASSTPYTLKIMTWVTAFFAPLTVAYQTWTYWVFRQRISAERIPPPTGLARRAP
T1 sequence (L7N662 entry or part of it): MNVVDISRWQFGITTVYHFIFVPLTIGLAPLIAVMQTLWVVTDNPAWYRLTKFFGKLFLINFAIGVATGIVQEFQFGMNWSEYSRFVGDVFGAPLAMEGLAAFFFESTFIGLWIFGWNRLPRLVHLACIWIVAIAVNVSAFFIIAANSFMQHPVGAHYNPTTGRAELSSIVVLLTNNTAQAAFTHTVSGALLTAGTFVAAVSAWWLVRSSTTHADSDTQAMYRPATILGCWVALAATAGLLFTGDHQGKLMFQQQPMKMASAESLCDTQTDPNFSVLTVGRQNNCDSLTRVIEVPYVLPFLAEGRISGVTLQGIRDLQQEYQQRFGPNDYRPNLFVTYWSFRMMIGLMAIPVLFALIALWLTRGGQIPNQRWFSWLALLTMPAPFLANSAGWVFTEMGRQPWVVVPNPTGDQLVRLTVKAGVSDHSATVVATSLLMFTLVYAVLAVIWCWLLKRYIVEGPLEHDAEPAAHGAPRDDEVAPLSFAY

In turn, `CC(C)=CCC/C(C)=C/CC/C(C)=C/Cc1c(C)[nH]c2ccccc2c1=O` [aurachin D] registered a concentration for half-maximal inhibition (IC50) of roughly 400 nM.

One may read the IC50 as the concentration that gives 50% inhibition. Lower therefore signals greater potency in that assay.
